This is an account of results in paper PMC9046208, “Foldamers reveal and validate therapeutic targets associated with toxic α-synuclein self-assembly” (Nature Communications, 2022).

One test deals with T1, αS (Homo sapiens, UniProt P37840).
T1 construct: made in house; host or cells: Escherichia coli BL21(DE3), periplasm
Nature of the test: FP displacement titration of αS-SK-129F complex with SK-129. It counts as binding. The following applies: displacement of SK-129F from αS-SK-129F complex by SK-129, n = 3. How it is done:
All Fluorescence Polarization (FP) experiments were conducted on a Varian Cary Eclipse fluorometer (Agilent, Santa Clara, CA) equipped with a polarizer. The stock solutions of αS, 1 mM or 100 μM in 1x PBS buffer, were serially added into a solution of 10 μM SK-129F (300 μL in 1x PBS buffer) while stirring in a quartz cuvette (Fireflysci, Staten Island, NY). All FP measurements were conducted in triplicates in 20 mM Tris, 100 mM NaCl, pH 7.2 at 20 °C. The excitation and emissions wavelengths were set at 490 nm and 520 nm, respectively. Each titration was equilibrated for five min before measurements were taken for the next addition of αS solution. The addition of αS solution was continuous until no more change in the FP signal was observed. Similar conditions were used for the titration of various αS mutants and Aβ42 peptide against SK-129F. […] The polarization of each point was calculated using Eq. 1:1 FP=I∥−I⊥/I∥+I⊥ Where I∥ is fluorescence intensity parallel to the excitation plane and I⊥ is fluorescence intensity perpendicular to the excitation plane. […]
affinity of SK-129 against αS. The fluorescence polarization titrations between SK129 and the preformed saturated complex of SK129 F-αS were conducted three times and each point in titrations was the average of three data points. […]

For test [1], the system named is HEK cells expressing αS-A53T-YFP. Nature of the test: Intracellular seed catalyzed aggregation in HEK cells, inclusion count. It counts as cell-based. Conditions: 10 µM SK-129 added 8 h after αS seeds (0.125 µM). How it is done:
The HEK cells (200,000 cells/mL) were plated in an µ-slide eight-well plate (300 µL/well) and incubated at 37 °C and 5% CO2 (g), and allowed to adhere to the plate for 24 h in media (DMEM, 10% FBS, 1% pen/strep). […] The HEK cells were incubated with αS fibrils for 8 h followed by the addition of 10 µM SK-129 for 300 µL media in each well (0.3 µL of 10 mM stock solution in DMSO, total DMSO = 0.1% v,v). The eight-well plate was incubated for a total of 24 h. The eight-well plate after 24 h was used for both confocal imaging and for the cytotoxicity measurements using MTT assay (2 wells/condition, 300 µL/well). In each experiment, 2 wells were used for each condition, including control (only media and DMSO), fibrils, and fibrils+SK-129.
The HEK cells in the eight-well plate were treated with a Hoechst 33342 dye solution for 1 h by adding 3 µL to each well (from 1 mg/ml solution in 1x PBS buffer). The Hoechst 33342 solution was carefully mixed with media by pipetting up and down for a few times. […] The counting of inclusions was carried out for six different experiments and for each experiment, 100 cells were counted from at least four different locations from the eight-well plate. The cells were counted manually by counting the number of Hoechst 33342 dye-stained nuclei in the cells. The inclusions in the cells were counted manually at different locations in the eight-well plate. […]

Consider `COC(=O)c1cc(OCC(=O)O)c2cccc(NC(=O)c3cc(OC(C)C)c4cccc(NC(=O)c5cc(OCC(=O)O)c6cccc(NC(=O)c7cc(OC(C)C)c8cccc([N+](=O)[O-])c8n7)c6n5)c4n3)c2n1` [SK-129], for which the Kd (commonly the free concentration of one partner at which half of the binding sites on the other are occupied at equilibrium, for simple one-to-one binding) at αS was found to be 720 ± 60 nM. Moreover, the number of inclusions in test [1] (total 24 h, without SK-129 ~19) is 1–2 inclusions/100 cells; in test [1] (up to 4 days), 2–3 inclusions/100 cells.
